≈ marks a conversion by molar mass, not a printed value.

For the data set the following is noted: buffer; pH 7.4; 200.0 µM.
Compound `CN(C)c1ccc(/C=N/NC(=O)c2ccc3nc[nH]c3c2)cc1` had a solubility (kinetic) above 46.1 µg/mL.

`Cc1onc(-c2ccccc2)c1C(=O)OCCOc1cccc(Cl)c1` yielded a solubility (kinetic) below 0.8 µg/mL. To `Cc1cc(C)c2nc(NCc3ccccc3O)sc2c1` belongs below 0.3 µg/mL; to `NC(=O)c1ccccc1NCC(=O)c1ccc(F)cc1`, above 40.8 µg/mL. In turn, `CCOc1ccc(C(=O)CC(C(=O)O)N2CCCCC2)cc1` (stereo unspecified) showed a kinetic solubility above 45.8 µg/mL. The figure for `O=C(NCc1ccc(F)cc1)c1cc(C(=O)C2CC2)c[nH]1` is 4.2 µg/mL (≈ 14.7 µM); for `O=C(c1ccc(F)cc1)C(C(=O)N1CCCCC1)n1ccccc1=O` (stereo unspecified) it is above 51.4 µg/mL.

With `CCc1ccc(N=C2NC(=O)CS2)cc1`, the kinetic solubility was found to be 32.3 µg/mL (≈ 147 µM). `CC1CCCN(Cc2csc(N)n2)C1` (stereo unspecified) yielded a solubility (kinetic) above 31.7 µg/mL. The figure for `CCOc1ccccc1NC(=O)Cc1cccs1` is 33.6 µg/mL (≈ 129 µM); for `O=C(CCCl)Nc1nc2c(s1)CCc1ccccc1-2` it is 7.2 µg/mL (≈ 24.6 µM); for `CN(C(=O)COc1ncnc2ccccc12)C1CCCCC1` it is 39 µg/mL (≈ 130 µM). The figure for `COc1ccccc1OCCC(=O)OCC(=O)NCc1ccc(Cl)cc1` is 3.4 µg/mL (≈ 9 µM); for `COc1cccc(-n2cnc3sc4c(c3c2=O)CCC4)c1` it is 5.9 µg/mL (≈ 19.8 µM). The figure for `CCOC(=O)c1[nH]cnc1C(=O)Nc1ccc([N+](=O)[O-])cc1` is 5 µg/mL (≈ 16.4 µM). In the case of `Cc1cccn2c(NC(=O)c3ccccc3F)c(-c3ccccc3)nc12`, the kinetic solubility amounted to 2.6 µg/mL (≈ 7.53 µM). The compound `Cc1ccnc(N(C(=O)Nc2ccccc2)C2=NCC(C)(C)S2)c1` yielded a solubility (kinetic) of 25.3 µg/mL (≈ 74.3 µM). Compared with the last compound, the solubility kinetic is about 9.7-fold higher. Compound `CCN(C(=O)COC(=O)c1ccccc1O)c1cccc2ccccc12` displayed a kinetic solubility of 3.5 µg/mL (≈ 10 µM). As to `O=S(=O)(c1ccccc1)N(CC1CO1)c1cc(Cl)ccc1Cl` (stereo unspecified), the solubility (kinetic) worked out at 36.4 µg/mL (≈ 102 µM). The figure for `O=[N+]([O-])c1ccc(CN2CCCCCC2)cc1` is above 35.1 µg/mL. The figure for `CC(=O)NC(Cc1ccccc1)Cc1ccccc1` is above 38 µg/mL; for `N#Cc1cccc(C(=O)OCC(=O)NCc2ccco2)c1` it is 31.2 µg/mL (≈ 110 µM).

For the compound `CC(=O)Nc1ccc(NC(=O)COc2ccc(Cl)cc2Cl)cc1`, the kinetic solubility is 1 µg/mL (≈ 2.83 µM). The figure for `COCC(=O)Nc1ccc2c(c1)OCO2` is 27.7 µg/mL (≈ 132 µM); for `CN1CCN(CCCNC(=O)CN2C(=O)COc3ccccc32)CC1` it is 37.6 µg/mL (≈ 109 µM).

In turn, `COc1ccc(C(=O)NCC(=O)NCc2ccncc2)cc1` displayed a kinetic solubility above 44.9 µg/mL. The figure for `CCOc1ccc(NC(=O)NCc2ccc3c(c2)OCO3)cc1` is 1.8 µg/mL (≈ 5.73 µM); for `CC(C)c1ccc(NC(=S)NN2CCN(C)CC2)cc1` it is above 43.9 µg/mL. As for `CS(=O)(=O)c1ccc(Cl)c(C(=O)NCC2CCCCC2)c1`, the solubility (kinetic) was above 49.5 µg/mL.

Take `CC(C)(CNC(=O)c1cccs1)N1CCOCC1`: the kinetic solubility is above 40.3 µg/mL. The figure for `Cc1ccc(NC(=O)CCN2CCC(C(N)=O)CC2)cc1` is above 43.4 µg/mL. The figure for `O=C(O)c1ccc2[nH]c3c(c2c1)CCCC3` is above 32.3 µg/mL; for `CCCc1cc(C(=O)Nc2ccc(Cl)cn2)cs1` it is 0.7 µg/mL (≈ 2.49 µM).

`COc1ccc(C(C)=O)cc1CC(=O)NCCCn1ccnc1` gave a kinetic solubility above 47.3 µg/mL. To `N#CCCN(C(=O)COC(=O)CCc1ccccc1)c1ccccc1` belongs 44.8 µg/mL (≈ 133 µM); to `CCCN1C2CCCC1CC(NC(=O)c1ccccc1OC)C2` (stereo unspecified), above 47.5 µg/mL; to `Cc1cc(C)c(S(=O)(=O)Cc2ccccc2)c(Cl)n1`, above 44.4 µg/mL. To `Cc1ccc(OCCCC(=O)NC2CCCCC2)cc1` belongs 15.7 µg/mL (≈ 57 µM); to `Cc1noc(C)c1COC(=O)c1cc(S(=O)(=O)N2CCOCC2)ccc1Cl`, 42.4 µg/mL (≈ 102 µM). `COc1ccc(C(=O)COC(=O)/C=C/c2ccccc2[N+](=O)[O-])cc1` yielded a solubility (kinetic) of 10.2 µg/mL (≈ 29.9 µM). To `CCCN(CCC)C(=O)CC(c1ccccc1)C1CCOC(C)(C)C1` (stereo unspecified) belongs 50.3 µg/mL (≈ 146 µM).

In turn, `Cc1ccc(C(=O)N2CCCC(C(=O)c3cc(F)ccc3F)C2)s1` (stereo unspecified) showed a kinetic solubility of 52.3 µg/mL (≈ 150 µM). The figure for `Clc1ccc(N2CC2c2ccncc2)cc1` (stereo unspecified) is 32.6 µg/mL (≈ 141 µM); for `CC1CC(C)(C)NC(=S)N1CCCC(=O)Nc1ccc(F)cc1` (stereo unspecified) it is 42.8 µg/mL (≈ 127 µM). To `CCCC(C)NC(=S)Nc1cc(C)cc(C)c1` (stereo unspecified) belongs 25.2 µg/mL (≈ 101 µM). To `COc1ccc(CCCC(=O)NCCc2ccccc2)cc1` belongs 35.2 µg/mL (≈ 118 µM); to `Cc1ccc(C)c(C(C)NC(=S)NCc2ccc(F)cc2)c1` (stereo unspecified), 1.4 µg/mL (≈ 4.42 µM); to `O=C(Nc1ccccc1C(F)(F)F)c1ccccc1Br`, 39.8 µg/mL (≈ 116 µM). For `COc1ccccc1CN(C)CC(=O)Nc1cccc2ccccc12`, the kinetic solubility stood at 18.9 µg/mL (≈ 56.5 µM). `Cc1cccc(Oc2ccc3c(c2)cc(C(=O)O)n3C)c1` yielded a kinetic solubility of 40.7 µg/mL (≈ 145 µM). The figure for `CC(C)CNCC1OCc2ccccc2CO1.Cl` is above 40.8 µg/mL; for `Fc1cc(F)c(NC(=S)N2CCOCC2)c(F)c1` it is above 41.4 µg/mL.

The compound `O=C(Nc1ccccc1)Oc1ccccc1N1CCOCC1` displayed a solubility (kinetic) of 31.9 µg/mL (≈ 107 µM). Regarding `CS(=O)(=O)N1CCCC(C(=O)Nc2ccccc2C(F)(F)F)C1` (stereo unspecified), the kinetic solubility is above 52.6 µg/mL. To `COC(=O)c1ccc(OC(=O)CN2C(=O)c3ccccc3C2=O)cc1` belongs 50.6 µg/mL (≈ 149 µM). To `CCOc1ccc(-c2nc(N)ncc2-c2ccc(Cl)cc2)c(O)c1` belongs 0.9 µg/mL (≈ 2.63 µM); to `O=C(COC(=O)/C=C/c1cccc(Cl)c1)Nc1c(F)cccc1F`, 6.3 µg/mL (≈ 17.9 µM). The compound `O=C(CNC(=O)c1ccc(F)cc1)Nc1ccccc1C(F)(F)F` showed a kinetic solubility of 16.2 µg/mL (≈ 47.6 µM). To `Cn1ccnc1SCC(=O)Nc1ccc2c(c1)OCO2` belongs above 43.7 µg/mL; to `O=C(Oc1ccc(F)cc1)c1cccnc1`, 26.7 µg/mL (≈ 123 µM); to `Cc1ccc(OCC(=O)Nc2ccc(CN3CCOCC3)cc2)cc1`, 27.8 µg/mL (≈ 81.7 µM). To `COc1ccc(CCNC(=O)c2cnc3ccccc3n2)cc1` belongs 40.2 µg/mL (≈ 131 µM); to `CC(C)=C(NC(=O)c1ccccc1)C(N)=O`, above 32.7 µg/mL. In turn, `O=c1[nH]c2cccnc2n1-c1cccc([N+](=O)[O-])c1` registered a kinetic solubility of 17 µg/mL (≈ 66.3 µM). `CCc1ccc(C(=O)NNC(=O)[C@H](C)NC(=O)c2ccco2)cc1`: the kinetic solubility was above 49.4 µg/mL.

Compound `O=C(N/N=C/c1ccc([N+](=O)[O-])o1)C1CCCC1` displayed a solubility (kinetic) above 37.7 µg/mL. In turn, `CCCOc1ccc(N2C(=O)CC(NCC#N)C2=O)cc1` (stereo unspecified) yielded a solubility (kinetic) of 41 µg/mL (≈ 143 µM). The figure for `Cc1cc(O)ccc1Nc1nc(-c2cccnc2)cs1` is 1.8 µg/mL (≈ 6.35 µM). The figure for `O=C(O)/C=C/c1ccccc1[N+](=O)[O-]` is above 29 µg/mL.

In turn, `CC(Cc1ccccc1)NC(=O)c1ccc(N)cc1` (stereo unspecified) came in with a solubility (kinetic) above 38.1 µg/mL. The figure for `Cc1ccc(CCC(=O)Nc2cc(Cl)ccc2Cl)o1` is 1.9 µg/mL (≈ 6.37 µM). To `CCn1c(COc2ccccc2OC)nc2ccccc21` belongs 41.9 µg/mL (≈ 148 µM); to `S=C(Nc1ccccc1Oc1ccccc1)NC1CCCC1`, 5 µg/mL (≈ 16 µM); to `Cc1ccc(-c2nc(C#N)c(N3CCC(C(N)=O)CC3)o2)cc1`, 1.6 µg/mL (≈ 5.16 µM). To `N#CCc1nc(C(c2ccccc2)c2ccccc2)no1` belongs 33.5 µg/mL (≈ 122 µM).

`CCCCc1nnc(NC(=O)COC)s1` returned a solubility (kinetic) above 34.4 µg/mL. To `Cc1ccc(N2CC(O)Cn3c2nc2c3c(=O)n(C)c(=O)n2C)cc1` (stereo unspecified) belongs 24.5 µg/mL (≈ 71.8 µM); to `Cc1ccc(C(=O)Nc2nc(C)c(C(=O)N(C)C)s2)o1`, 40.3 µg/mL (≈ 137 µM).

For the compound `Cc1ccc(OCc2ccc(C(=O)N3CCCC3)o2)cc1C`, the solubility (kinetic) is 31.8 µg/mL (≈ 106 µM).

The compound `O=C(O)c1ccc(N=Nc2c(-c3ccccc3)[nH]oc2=O)cc1` came in with a kinetic solubility above 46.4 µg/mL. The figure for `CC(C)(C)NC(=O)c1cccc2c1C(=O)c1ccccc1-2` is 3.9 µg/mL (≈ 14 µM); for `Fc1ccc(Nc2ncnc3sccc23)cc1` it is 32.8 µg/mL (≈ 134 µM); for `Cc1cccc(C)c1N1C(=O)C(Cl)=C(N2CCCC2)C1=O` it is 31.2 µg/mL (≈ 102 µM).

`CC1=CC(C)C(C(=O)O)C(C(=O)N2CCN(C)CC2)C1` (stereo unspecified): the kinetic solubility is above 42.1 µg/mL. The figure for `CC(C)c1cc(CN2CCOCC2)cc(C(C)C)c1O` is above 41.6 µg/mL; for `c1ccc(-c2cc(-c3ccccc3)ncn2)cc1` it is 4.6 µg/mL (≈ 19.8 µM); for `Cl.NS(=O)(=O)c1ccc(CCNCc2cccnc2)cc1` it is 40.5 µg/mL. To `O=C(Nn1cnc2ccccc2c1=O)c1ccccc1F` belongs above 42.5 µg/mL; to `CC(SCC(=O)Nc1ccccc1Br)c1nc2ccccc2c(=O)[nH]1` (stereo unspecified), 3.2 µg/mL (≈ 7.65 µM).

With `CCOC(=O)c1c(C)[nH]c(C)c1C(=O)COC(=O)/C=C/c1ccco1`, the solubility (kinetic) is above 51.8 µg/mL.

The compound `O=C(Cc1c(F)cccc1Cl)NCCc1c[nH]c2ccccc12` gave a solubility (kinetic) of 4.8 µg/mL (≈ 14.5 µM). For the compound `Cc1ccc(N=Cc2ccc(N(C)C)cc2)cc1C`, the solubility (kinetic) worked out at 20.3 µg/mL (≈ 80.4 µM). The figure for `Br.Cn1c(=N)n(CC(=O)c2ccc(F)cc2)c2ccccc21` is above 54.6 µg/mL; for `CC(=O)c1sc2nc(CSc3nncn3C)[nH]c(=O)c2c1C` it is above 50.3 µg/mL. In the case of `COc1ccc(C(=O)NCCc2ccccc2)cc1[N+](=O)[O-]`, the solubility (kinetic) was above 45 µg/mL. To `O=C1CNC(=S)N1CCCn1ccnc1` belongs 31.5 µg/mL (≈ 140 µM); to `CCOC(=O)Oc1ccc(/C=C2\N=C(C)OC2=O)cc1`, 35.9 µg/mL (≈ 130 µM). The figure for `CC(C)COC(=O)c1ccc(N2C(=O)c3ccccc3C2=O)cc1` is 2.1 µg/mL (≈ 6.49 µM). The figure for `Cc1csc(NC(=O)CSc2nncs2)n1` is above 40.9 µg/mL. Compound `Cc1ccc(C(=O)N2CCCc3ccccc32)c(F)c1F` registered a kinetic solubility of 17.2 µg/mL (≈ 59.9 µM). The figure for `CCOc1ccc(C)cc1S(=O)(=O)NC1CCCCCC1` is 2.2 µg/mL (≈ 7.06 µM). In the case of `Cc1cc2c(sc3c(C)ccc(C)c32)c(C)n1.Cl`, the solubility (kinetic) is below 0.6 µg/mL. The figure for `O=C1C2C3C=CC(C4CC34)C2C(=O)N1c1cc(Cl)ccn1` (stereo unspecified) is 42.6 µg/mL (≈ 142 µM); for `O=C(OCc1cccc(C(F)(F)F)c1)c1ccc[nH]c1=O` it is above 44.6 µg/mL. The figure for `CN1C(N)=NC(=O)/C1=C/c1ccc(F)cc1` is above 32.9 µg/mL; for `O=C(OCCN=C1NS(=O)(=O)c2ccccc21)c1ccccc1F` it is 5.7 µg/mL (≈ 16.4 µM).

By solubility (kinetic) is commonly meant the concentration staying in solution when a stock, usually in DMSO, is diluted into the medium.

Source of the values: PubChem BioAssay AID1996.
